Experiment [1] has as its system TtT-GF mouse folliculostellate pituitary cell nuclei. Nature of the experiment: Quantitative DNA Methylation Imaging of nuclear MeC/DAPI colocalization. The note with it: 100 nM, 24 hours, TtT-GF cells in culture; selected cells 1-5; FIG. 4. The class given is cell-based.
Source text: Therefore, we used the genome and its 3D organization as an indicator to evaluate the effect of demethylating drugs on cancer cells in situ. Our approach provides a statistical measurement on the two classes of DNAs (MeC and DAPI-positive gDNA) as nuclear targets. The algorithm compares the relative distribution of signals derived from these two targets (from two color-channels), projects them onto scatter plots (FIGS. 3 and 4), and then measures the degree of similarities between the plotted signal distributions of cells within a population. This method offers a way to evaluate cellular response to external factors such as drugs and changes in culture conditions via dissimilarity assessment of relevant cellular structures. […] This method considers the strength of statistical evaluation of intra-nuclear MeC/DAPI patterns, especially valuable when cell population homogeneity is difficult to be assessed due to lack of standardized reference and sample size. FIG. 1 is a workflow of Quantitative DNA Methylation (MeC) Imaging comprised of three steps: (1) immunofluorescence with antibodies against MeC (and against a cell-type or cell-characteristic marker) and DNA counterstaining with DAPI, (2) high-resolution fluorescence microscopy to collect 2D optical sections of the cells, and (3) 3D fluorescence image analysis. […]
Experiment [2] has as its system AtT20 mouse pituitary tumor cells. The experiment in a line: Quantitative DNA Methylation (MeC) Imaging of nuclear MeC/DAPI colocalization. The class given is cell-based. The note with it: treated AtT20 cells in culture versus untreated cells (tight colocalization); FIG. 3. The source says:
Approximately 55% of the human genome is comprised of heterochromatin. […] Therefore, we used the genome and its 3D organization as an indicator to evaluate the effect of demethylating drugs on cancer cells in situ. Our approach provides a statistical measurement on the two classes of DNAs (MeC and DAPI-positive gDNA) as nuclear targets. The algorithm compares the relative distribution of signals derived from these two targets (from two color-channels), projects them onto scatter plots (FIGS. 3 and 4), and then measures the degree of similarities between the plotted signal distributions of cells within a population. This method offers a way to evaluate cellular response to external factors such as drugs and changes in culture conditions via dissimilarity assessment of relevant cellular structures. […] This method considers the strength of statistical evaluation of intra-nuclear MeC/DAPI patterns, especially valuable when cell population homogeneity is difficult to be assessed due to lack of standardized reference and sample size.
FIG. 1 is a workflow of Quantitative DNA Methylation (MeC) Imaging comprised of three steps: (1) immunofluorescence with antibodies against MeC (and against a cell-type or cell-characteristic marker) and DNA counterstaining with DAPI, (2) high-resolution fluorescence microscopy to collect 2D optical sections of the cells, and (3) 3D fluorescence image analysis. […]

`C[C@@H](O)[C@@H]1NC(=O)[C@H](CCCCN)NC(=O)[C@@H](Cc2c[nH]c3ccccc23)NC(=O)[C@H](Cc2ccccc2)NC(=O)[C@@H](NC(=O)[C@H](N)Cc2ccccc2)CSSC[C@@H](C(=O)N[C@H](CO)[C@@H](C)O)NC1=O` [octreotide]: the “response (demethylation) of the cell population, MeC vs heterochromatin/DAPI colocalization” value in experiment [1] is “diverse response”.

On to `Nc1ncn([C@@H]2O[C@H](CO)[C@@H](O)[C@H]2O)c(=O)n1` [5-azacytidine], for which the “change of nuclear DNA methylation patterns (MeC vs heterochromatin/DAPI colocalization)” value in experiment [2] is “large foci that are uniquely comprised of three types of signals/genomic loci”.

For the origin of these results see patent US20100304380A1, “Quantitative DNA Methylation Imaging of Cells and Tissues” (EPILUMINA, INC., priority 2009, published 2010).
